Data taken from PubChem BioAssay AID264 (DTP/NCI, 2004).
Several values for one entry are separate records, joined by “and”; a condition that tells them apart may be missing. Identical values can stand only once. Records with an inconclusive call do not appear.

Tested on: nude mice, LX-1 lung xenograft intrarenal, tumor weight T/C
Test: NCI In Vivo Anticancer Drug Screen. Data for tumor model Human Lung LX-1 Xenograft (intrarenal inoculation) in NU/NU Swiss (nude) mice
Conditions: endpoint: mean tumor weight change, higher = larger tumour
Description: The antitumor activity of compounds was measured in mice bearing transplantable tumors. Survival or tumor size were measured and the results are expressed as the measurement made in the treated group (T) divided by the measurement made in the vehicle treated control group (C). The tumor model used in this assay is Human Lung LX-1 Xenograft (intrarenal inoculation) in NU/NU Swiss (nude) mice

[1] = dose: 100.0 mg/kg/injection, schedule: Q04DX003 (sc), vehicle: Klucel (hydroxypropylcellulose) (HPC)
[2] = dose: 200.0 mg/kg/injection, schedule: Q04DX003 (sc), vehicle: Klucel (hydroxypropylcellulose) (HPC)
[3] = dose: 400.0 mg/kg/injection, schedule: Q04DX003 (sc), vehicle: Klucel (hydroxypropylcellulose) (HPC)
[4] = dose: 1200.0 mg/kg/injection, schedule: Q04DX003 (sc), vehicle: Klucel (hydroxypropylcellulose) (HPC)
[5] = dose: 200.0 mg/kg/injection, schedule: Q01DX010 (sc), vehicle: saline
[6] = dose: 400.0 mg/kg/injection, schedule: Q01DX010 (sc), vehicle: saline
[7] = dose: 800.0 mg/kg/injection, schedule: Q01DX010 (sc), vehicle: saline

With `CCNC(=O)[B-][N+](C)(C)C` the T/C [1] was 108 % of control, the T/C [2] was 73 % of control and the T/C [3] was 48 % of control.

`c1cc(NC2CCCCC2)ccc1CN1CCOCC1` was tested, and the T/C (dose: 50.0 mg/kg/injection, schedule: Q01DX010 (sc), vehicle: saline + Tween-80 + alcohol) was 38 % of control, the T/C (dose: 100.0 mg/kg/injection, schedule: Q01DX010 (sc), vehicle: saline + Tween-80 + alcohol) was 74 % of control and the T/C (dose: 800.0 mg/kg/injection, schedule: Q01DX010 (sc), vehicle: saline + Tween-80 + alcohol) was 84 % of control. For the same compound, the T/C (dose: 1600.0 mg/kg/injection, schedule: Q01DX010 (sc), vehicle: saline + Tween-80 + alcohol) was 84 % of control.

For `COc1ccc(CC2C(=O)NC(C)C(=O)N(C)C3C(=O)N(C)C(Cc4ccc(O)c(c4)Oc4ccc(cc4)C3O)C(=O)NC(C)C(=O)NC(C)C(=O)N2C)cc1` (centres undefined), the T/C (dose: 0.5 mg/kg/injection, schedule: Q01DX010 (sc), vehicle: saline with Tween-80) was 69 % of control, the T/C (dose: 1.0 mg/kg/injection, schedule: Q01DX010 (sc), vehicle: saline with Tween-80) was 85 % of control and the T/C (dose: 2.0 mg/kg/injection, schedule: Q01DX010 (sc), vehicle: saline with Tween-80) was 96 % of control. For the same compound, the T/C (dose: 4.0 mg/kg/injection, schedule: Q01DX010 (sc), vehicle: saline with Tween-80) was 40 % of control.

In the case of `OCCOCCN1CCN(CCCN2c3ccccc3Sc3ccc(C(F)(F)F)cc32)CC1`, the T/C (dose: 3.0 mg/kg/injection, schedule: Q01DX010 (sc), vehicle: saline) is reported as 81 % of control, the T/C (dose: 12.0 mg/kg/injection, schedule: Q01DX010 (sc), vehicle: saline) is reported as 92 % of control and 111 % of control and the T/C (dose: 24.0 mg/kg/injection, schedule: Q01DX010 (sc), vehicle: saline) is reported as 52 % of control.

With `O=c1[nH]cc(F)c(=O)[nH]1` the T/C (dose: 5.0 mg/kg/injection, schedule: Q01DX010 (sc), vehicle: saline) was 107 % of control, the T/C (dose: 20.0 mg/kg/injection, schedule: Q01DX010 (sc), vehicle: saline) was 56 % of control and the T/C (dose: 40.0 mg/kg/injection, schedule: Q01DX010 (sc), vehicle: saline) was 25 % of control.

With `CCCCCCCCCCCCCCC/C([O-])=N/[N+](C)(C)CC(C)O` (centres undefined) the T/C [1] was 66 % of control, the T/C [2] was 54 % of control and the T/C [3] was 103 % of control. The T/C (dose: 800.0 mg/kg/injection, schedule: Q04DX003 (sc), vehicle: Klucel (hydroxypropylcellulose) (HPC)) was 77 % of control, the T/C [4] was 77 % of control and the T/C (dose: 2400.0 mg/kg/injection, schedule: Q04DX003 (sc), vehicle: Klucel (hydroxypropylcellulose) (HPC)) was 69 % of control.

For `CCc1nc(N)nc(N)c1-c1ccc(Cl)c([N+](=O)[O-])c1`, the T/C (dose: 9.38 mg/kg/injection, schedule: Q04DX003 (sc), vehicle: saline with Tween-80) was 99 % of control, the T/C (dose: 18.75 mg/kg/injection, schedule: Q04DX003 (sc), vehicle: saline with Tween-80) was 108 % of control and the T/C (dose: 37.5 mg/kg/injection, schedule: Q04DX003 (sc), vehicle: saline with Tween-80) was 99 % of control. For the same compound, the T/C (dose: 75.0 mg/kg/injection, schedule: Q04DX003 (sc), vehicle: saline with Tween-80) was 119 % of control.

With `N/C(=N\O)c1cn(C2OC(CO)C(O)C2O)c2ncnc(N)c12` (centres undefined) the T/C (dose: 2.5 mg/kg/injection, schedule: Q04DX003 (sc), vehicle: Klucel (hydroxypropylcellulose) (HPC)) was 95 % of control, the T/C (dose: 5.0 mg/kg/injection, schedule: Q04DX003 (sc), vehicle: Klucel (hydroxypropylcellulose) (HPC)) was 99 % of control and the T/C (dose: 10.0 mg/kg/injection, schedule: Q04DX003 (sc), vehicle: Klucel (hydroxypropylcellulose) (HPC)) was 81 % of control. For the same compound, the T/C (dose: 20.0 mg/kg/injection, schedule: Q04DX003 (sc), vehicle: Klucel (hydroxypropylcellulose) (HPC)) was 44 % of control.

With `COc1ccc(CC2C(=O)NC(C)C(=O)N(C)C3Cc4ccc(cc4)Oc4cc(ccc4O)CC(C(=O)NC(C)C(=O)NC(C)C(=O)N2C)N(C)C3=O)cc1` (centres undefined) the T/C (dose: 4.0 mg/kg/injection, schedule: Q04DX003 (sc), vehicle: saline with Tween-80) was 61 % of control, the T/C (dose: 8.0 mg/kg/injection, schedule: Q04DX003 (sc), vehicle: saline with Tween-80) was 25 % of control and the T/C (dose: 16.0 mg/kg/injection, schedule: Q04DX003 (sc), vehicle: saline with Tween-80) was 34 % of control. For the same compound, the T/C (dose: 32.0 mg/kg/injection, schedule: Q04DX003 (sc), vehicle: saline with Tween-80) was 27 % of control.

With `CC(=O)NCCCCCCNC(C)=O` the T/C [5] was 106 % of control, the T/C [6] was 45 % of control and the T/C [7] was 105 % of control and 114 % of control. For the same compound, the T/C (dose: 3200.0 mg/kg/injection, schedule: Q01DX010 (sc), vehicle: saline) was 96 % of control.

`Cc1cc(NCCCCCCCCNc2cc(C)nc3cc(N(C)C)ccc23)c2ccc(N(C)C)cc2n1` was tested, and the T/C (dose: 18.75 mg/kg/injection, schedule: Q01DX010 (sc), vehicle: saline with Tween-80) was 56 % of control, the T/C (dose: 37.5 mg/kg/injection, schedule: Q01DX010 (sc), vehicle: saline with Tween-80) was 34 % of control and 45 % of control and the T/C (dose: 75.0 mg/kg/injection, schedule: Q04DX003 (sc), vehicle: distilled water + Tween-80 + alcohol) was 42 % of control and 60 % of control. The T/C (dose: 150.0 mg/kg/injection, schedule: Q04DX003 (sc), vehicle: distilled water + Tween-80 + alcohol) was 61 % of control and 72 % of control, the T/C (dose: 300.0 mg/kg/injection, schedule: Q04DX003 (sc), vehicle: distilled water + Tween-80 + alcohol) was 33 % of control and 39 % of control and the T/C (dose: 600.0 mg/kg/injection, schedule: Q04DX003 (sc), vehicle: distilled water + Tween-80 + alcohol) was 25 % of control.

In the case of `C[C@@H]1C[C@H]2[C@@H]3CCC4=CC(=O)C=C[C@]4(C)[C@@]3(F)[C@@H](O)C[C@]2(C)[C@@]1(O)C(=O)CO`, the T/C (dose: 1.56 mg/kg/injection, schedule: Q01DX010 (sc), vehicle: Klucel (hydroxypropylcellulose) (HPC)) is reported as 41 % of control, the T/C (dose: 3.13 mg/kg/injection, schedule: Q01DX010 (sc), vehicle: Klucel (hydroxypropylcellulose) (HPC)) is reported as 32 % of control and the T/C (dose: 6.25 mg/kg/injection, schedule: Q01DX010 (sc), vehicle: Klucel (hydroxypropylcellulose) (HPC)) is reported as 33 % of control. The T/C (dose: 12.5 mg/kg/injection, schedule: Q01DX010 (sc), vehicle: Klucel (hydroxypropylcellulose) (HPC)) was 26 % of control.

With `C(C#CCN1CCOCC1)#CCN1CCOCC1` the T/C (dose: 300.0 mg/kg/injection, schedule: Q04DX003 (sc), vehicle: Klucel (hydroxypropylcellulose) (HPC)) was 124 % of control, the T/C (dose: 600.0 mg/kg/injection, schedule: Q04DX003 (sc), vehicle: Klucel (hydroxypropylcellulose) (HPC)) was 76 % of control and the T/C [4] was 84 % of control.

`COc1cccc2c1C(=O)c1c(O)c3c(c(O)c1C2=O)C[C@@](O)(/C(C)=N/NC(=O)c1cccc([N+](=O)[O-])c1)C[C@@H]3OC1CC(N)C(O)C(C)O1` (some centres undefined) was tested, and the T/C (dose: 8.0 mg/kg/injection, schedule: Q01DX010 (sc), vehicle: water) was 68 % of control, the T/C (dose: 16.0 mg/kg/injection, schedule: Q01DX010 (sc), vehicle: water) was 78 % of control and the T/C (dose: 24.0 mg/kg/injection, schedule: Q04DX003 (sc), vehicle: water) was 54 % of control. For the same compound, the T/C (dose: 48.0 mg/kg/injection, schedule: Q04DX003 (sc), vehicle: water) was 9 % of control and the T/C (dose: 96.0 mg/kg/injection, schedule: Q04DX003 (sc), vehicle: water) was 25 % of control.

In the case of `CN1c2c(nc(N)[nH]c2=O)NCC1CCNc1ccc(C(=O)NC(CCC(=O)O)C(=O)O)cc1` (centres undefined), the T/C (dose: 100.0 mg/kg/injection, schedule: Q01DX010 (sc), vehicle: saline) is reported as 82 % of control, the T/C [5] is reported as 36 % of control and 41 % of control and the T/C [6] is reported as 11 % of control and 36 % of control. For the same compound, the T/C [7] was 11 % of control and the T/C (dose: 1600.0 mg/kg/injection, schedule: Q01DX010 (sc), vehicle: saline) was 27 % of control.

With `O=C(NO)c1cc(O)c(O)c(O)c1` the T/C (dose: 200.0 mg/kg/injection, schedule: Q04DX003 (sc), vehicle: distilled water + Tween-80) was 66 % of control, the T/C (dose: 400.0 mg/kg/injection, schedule: Q04DX003 (sc), vehicle: distilled water + Tween-80) was 87 % of control and the T/C (dose: 800.0 mg/kg/injection, schedule: Q04DX003 (sc), vehicle: distilled water + Tween-80) was 100 % of control. The T/C (dose: 1600.0 mg/kg/injection, schedule: Q04DX003 (sc), vehicle: distilled water + Tween-80) was 90 % of control.

For `COC1=C(C)C(=O)C2=C(C1=O)C1C3CC4=C(C(=O)C(OC)=C(C)C4=O)C(CNC(=O)C(C)=O)N3C(C#N)C(C2)N1C` (centres undefined), the T/C (dose: 1.0 mg/kg/injection, schedule: Q04DX003 (sc), vehicle: Klucel (hydroxypropylcellulose) (HPC)) was 111 % of control, the T/C (dose: 2.0 mg/kg/injection, schedule: Q04DX003 (sc), vehicle: Klucel (hydroxypropylcellulose) (HPC)) was 105 % of control and the T/C (dose: 4.0 mg/kg/injection, schedule: Q04DX003 (sc), vehicle: Klucel (hydroxypropylcellulose) (HPC)) was 59 % of control.
